Assays:
[1] = test system: chloride sensor (ECFP - peptide linker - EYFP with mutations I152L, V163S, H148Q; SEQ ID No. 5); experiment: Calibration of chloride sensor emission ratio R=F527/F485 in patch-pipette dialysed cells; format: cell-based; settings: in HEK293 and BOSC23 cells; Rmax = 2,39, Rmin = 0,49
Description: The chloride sensor was expressed in human kidney derived cell lines (HEK293 and BOSC23) using a calcium phosphate transfection procedure.
Measurements of fluorescence are likely to reflect the average [Cl-] in the intracellular compartment.
The ratio (R) of fluorescence emission of the EYFP acceptor to that of the ECFP donor is R=F527/F485.
To calibrate the fluorescence of chloride sensor within these cells, R is measured while using a patch pipette to manipulate the cytoplasmic concentration of anions. A nominally Cl- free solution containing 150 mM gluconate is used to determine the maximal emission ratio for the chloride sensor (Rmax), whereas a solution containing a saturating concentration (150mM) of Cl- defines the minimal emission ratio (Rmin). The relationship between R and intermediates values of [Cl-] is then determined. This relationship could be described as : [Cl-]= K'd (Rmax - R)/(R - Rmin), [formula] with Rmax = 2,39, Rmin = 0,49 and K'd = 87mM. this calibration curve can then be used to convert R values measured in intracellular compartment of living cells into [Cl-].

[2] = molecular target: YFP double mutant YFP-H148Q/V163S (Aequorea victoria, UniProt P42212, H148Q/H231L/S65G/S72A/T203Y/V163S/V68L); settings: physiological pH (7,35); cited from earlier work
[3] = molecular target: YFP double mutant YFP-H148Q/I152L (Aequorea victoria, UniProt P42212, H148Q/H231L/I152L/S65G/S72A/T203Y/V68L); settings: cited from earlier work

In the case of chloride [Cl^-], the Kd [1] is given as 87 mM, the Kd [2] is given as 39 mM and the “binding kinetics (τ)” value [2] is given as 1900 ms. The Kd [3] was 85 mM and the “binding kinetics (τ)” value [3] was 52 ms.

— EP1514922A1 (priority 2003, dated 2005)
